Experimental findings from patent US10260039B2, “Microgels and microtissues for use in tissue engineering” (Massachusetts Institute of Technology, priority 2011, dated 2019) are described below.

Assay [1] has as its system 3D engineered liver tissues. Briefly: hepatic function of 3D engineered liver tissues (albumin secretion). The format is cell-based, human. The text has this:
FIG. 10. A) Albumin secretion as a measure of hepatic phenotype, elevated in the presence of fibroblasts and RGDS peptide. B) Luminex bead measurements of human drug metabolism enzyme genes, showing upregulation of the genes in 3D as opposed to 2D, in various phases of drug metabolism.
More recently, it has been possible to extend the function of 3D engineered liver tissues even further, by addition of a micropatterning step pre-encapsulation (FIG. 11).

For assay [2], the system named is encapsulated tumor cells. Briefly: 3D proliferation of encapsulated tumor cells in microtissues (large-particle flow analyzer). In kind it is cell-based. An excerpt:
FIG. 16. Microtissue proliferation modulated by (a) incorporated extracellular matrix molecules, or (b) culture in soluble growth factors.
FIG. 17. Differences in tumor cell responses to small molecules in 2D vs. 3D culture. (a) Comparison of proliferation rates on 2D-microplate and 3D-microtissue formats relative to untreated controls. (b) Growth curve over time of tumor cells in 2D measured by microplate fluorescence, and (c) Growth curve over time of tumor cells in 3D measured by gel dissolution and DNA quantitation.
The in vitro 3D tumor model platform combines the split-injection encapsulation chip described in detail above with a large-particle flow analyzer and sorter (COPAS Biosort by Union Biometrica). Cells are first encapsulated within microtissues (˜5000/min) that can contain tumor cells, stromal cells, and various entrapped ECM. These microtissues are then further enriched using the flow sorter that measures the fluorescence intensity each microtissue, correlating with the density of zs-green tumor cells in each microtissue. (FIG. 15a), and can sort the microtissues (˜25 selected/min) into low, medium, and high homotypic cell density bins (FIG. 15b). […] Selected populations of microtissues are then exposed to stimuli in culture such as growth factors and inhibitors, and their proliferation over days is detected on a population level (FIG. 15b).

Regarding “RGDS: adhesive peptide (SEQ ID NO: 1), acrylate-PEG-RGDS incorporated in hydrogel; ligates α5β1 integrin (not fully specified; acrylate-PEG conjugate in hydrogel)”, the hepatic functions entry in assay [1] (3D culture, ligation of α5β1 integrin via RGDS (FIG. 10A)) is “further improved hepatic functions”. In addition, in assay [1] (in the presence of fibroblasts and RGDS peptide (FIG. 10A)), the “albumin secretion as a measure of hepatic phenotype” value was “elevated”.
As for fibronectin, the “3D proliferation (growth) of encapsulated tumor cells” value in assay [2] (extracellular matrix protein incorporated in microtissues (FIG. 16)) is “promoted growth”.
Consider TGF-β, for which, in assay [2] (exogenous growth factor in culture, 3D microtissues (FIG. 16)), the “slowing of 3D proliferation of encapsulated tumor cells” value is reported as roughly 80%.
